Results published in patent publication US20090238810A1, “OPHTHALMIC COMPOSITION” (Menicon Co., Ltd., priority 2006, published 2009).

Experiments:
[1] = test system: corneal epithelium of DE mice; assay: Corneal fluorescein staining in experimental mouse model of dry eye (DE mice); format: in vivo, C57BL/6J mice
Method: (§1) C57BL/6J mice aged 10 to 12 weeks were used for studies. All the studies were performed in accordance with the ARVO Statement for the Use of Animals in Ophthalmic and Vision Research.
(§2) The mice were subcutaneously injected with 0.5 mg/0.2 ml of scopolamine hydrobromide four times a day for 5 days. Desiccating environmental stress was created by placing a mouse cage in a blower hood with continuous air flow blower (room temperature of […] and relative humidity of 60%±10%). Tear production of each mouse was evaluated before the treatment, and also evaluated on third and fifth days of the treatment.
(§3) During the desiccation treatment, one of the eyes of each mouse was treated with eye drops including ApoA1 (Sigma-Aldrich, Japan) or with eye drops including ApoA1 and D-pantethine (Sigma-Aldrich, Japan), while PBS was administrated to the other eye of each mouse as a control. 5 μl of the respective eye drops was administered four times a day during the desiccation treatment for five days. All the ophthalmic compositions were formulated in PBS, and the osmolarity and the pH value of the compositions were adjusted to 290 to 300 mOsm/L and pH 7.4, respectively. […] To prepare one liter of 0.01 M PBS, there are needed the followings:
Corneal fluorescein staining was evaluated 10 minutes after topical application of 1 μL of 1% sodium fluorescein (Sigma-Aldrich, Japan) to mouse eyes, which were treated as described above, and examined under a light microscope (Leica Microsystems Inc., Deerfield, USA) and photographed with a digital camera (CAMEDIA, Olympus Optical Co. Ltd., Japan) fitted to the microscope.
In TABLES 2 and 3 below, X represents a ratio of an area which was subjected to a punctuate staining to a total area of a cornea.

[2] = test system: corneal epithelium of DE mice; assay: Histopathologic study: corneal epithelial thickness in DE mice; format: in vivo, C57BL/6J mice
Method: as §1, §2, §3
Mice eyeballs were surgically excised, and fixed with neutral-buffered formalin (10%) and embedded in paraffin. Then, 5 μm thick histological sections were cut and stained with hematoxylin and eosin. […] Microphotometric measurement of the thickness was done by using OB-M, 1/100, micro, AX0001 (Olympus Optical Co. Ltd., Japan). The corneal epithelial thickness was measured to an accuracy of 10 μm.
In this EXAMPLE, there were used 6 to 8 corneas of each of the following groups of mice: (a) normal mice, (b) DE mice, (c) DE mice treated with 0.04 w/v % of ApoA1, and (d) DE mice treated with PBS.

[3] = DE mice, various concentrations

## apolipoprotein A-1 [ApoA1]
[1]; 0.01, 0.04 or 0.1 w/v % ApoA1 tested, DE mice (FIG. 10)
  most effective concentration of ApoA1, corneal staining scores: 0.1 w/v %
[1]; [3]
  conclusion of corneal fluorescein staining experiments: effect on dry eye syndrome: significantly effective
[1]; eye drops 0.04 w/v % ApoA1, 5 μl four times a day for five days, six DE mice, other eye PBS (FIG. 8)
  average corneal staining score, less than that of the PBS group: about 25%
[1]; eye drops 0.04 w/v % ApoA1, DE mice
  effect on corneal epithelium erosion due to desiccation (grading scores and quantitative measurement): protective effects
[1]; eye drops 0.04 w/v % ApoA1, DE mice, data not shown
  quantitative measurement of fluorescein stained area (NIH ImageJ), average score less than that of the PBS group: 20%
[2]; 0.01, 0.04, 0.1 w/v % ApoA1 tested, DE mice (FIG. 15)
  most effective concentration of ApoA1, corneal epithelial thickness: 0.1 w/v %
[2]; DE mice treated with 0.04 w/v % ApoA1 vs PBS (FIGS. 12 and 13)
  thinning of the cell layers accompanied by detachment of the corneal epithelium: significantly greater in the PBS-treated eyes compared with the ApoA1-treated eyes
[2]; [3]
  conclusion of corneal epithelial thickness experiments: restriction of thinning of corneal epithelium: extremely effective
